# In article PMC7822874, “Chemoprotective antimalarials identified through quantitative high-throughput screening of Plasmodium blood and liver stage parasites” (Scientific Reports, 2021):
# Where two headings read alike, the source gives them in different places.
# Legend:
# [1] = system: P. berghei-ANKA-GFP-LucCON liver stage parasites in HepG2-A16-CD81EGFP cells; experiment: P. berghei liver stage Pb-Luc assay, Method 1 (UCSD, 1536-well); assay type: cell-based, Plasmodium berghei; conditions: Plasmodium berghei, 48 h
# in vitro = conditions: human, HepG2-A16-CD81EGFP cells, uninfected
# HepG2-A16-CD81EGFP cells = conditions: for HepG2 viability signal, 1 uM, repeat 2: nominal 1 uM (10 mM stock), […] for 15 mM, 1.2 uM for 12 mM, 2 uM for 20 mM stock; for HepG2 viability signal, 1 uM, repeat 2 / HepG2 viability signal, 3 uM, repeat 2 / HepG2 1uM growth rep1 / HepG2 1uM growth rep2 / HepG2 3uM growth rep1 / HepG2 3uM growth rep2: average of 2 wells; for HepG2 viability signal, 3 uM, repeat 2: nominal 3 uM (10 mM stock), 4.5 uM for 15 mM, 3.6 uM for 12 mM, 6 uM for 20 mM stock; for HepG2 1uM growth rep1 / HepG2 1uM growth rep2: HepG2, 1 µM compound treatment (10 mM stocks); for HepG2 1uM growth rep1 / HepG2 3uM growth rep1: replicate 1, normalized; for HepG2 1uM growth rep2 / HepG2 3uM growth rep2: replicate 2, normalized; for HepG2 3uM growth rep1 / HepG2 3uM growth rep2: HepG2, 3 µM compound treatment (10 mM stocks)
# [2] = system: Plasmodium falciparum Dd2 asexual blood stage parasites; experiment: microbe, parasite or virus in culture; parameters: species or system Plasmodium falciparum Dd2 in human erythrocytes; single determination (one 11-point concentration-response curve); conditions: Plasmodium falciparum, DD2, Erythrocyte, 72 h; read-out: AC50
# [3] = nominal 1 uM (10 mM stock), […] for 15 mM, 1.2 uM for 12 mM, 2 uM for 20 mM stock, average of 2 wells, 1536-well plate, repeat 1, read-out: Pb-Luc signal, 1 uM, repeat 1
# [4] = nominal 1 uM (10 mM stock), […] for 15 mM, 1.2 uM for 12 mM, 2 uM for 20 mM stock, average of 2 wells, 1536-well plate, repeat 2, read-out: Pb-Luc signal, 1 uM, repeat 2
# [5] = nominal 1 uM (10 mM stock), […] for 15 mM, 1.2 uM for 12 mM, 2 uM for 20 mM stock, average of 2 wells, 1536-well plate, repeat 3, read-out: Pb-Luc signal, 1 uM, repeat 3
# [6] = nominal 3 uM (10 mM stock), 4.5 uM for 15 mM, 3.6 uM for 12 mM, 6 uM for 20 mM stock, average of 2 wells, 1536-well plate, repeat 1, read-out: Pb-Luc signal, 3 uM, repeat 1
# [7] = nominal 3 uM (10 mM stock), 4.5 uM for 15 mM, 3.6 uM for 12 mM, 6 uM for 20 mM stock, average of 2 wells, 1536-well plate, repeat 2, read-out: Pb-Luc signal, 3 uM, repeat 2
# [8] = nominal 3 uM (10 mM stock), 4.5 uM for 15 mM, 3.6 uM for 12 mM, 6 uM for 20 mM stock, average of 2 wells, 1536-well plate, repeat 3, read-out: Pb-Luc signal, 3 uM, repeat 3
# [9] = P. berghei liver stage, 1 µM compound treatment (10 mM stocks), replicate 1, normalized, average of 2 wells on a 1536 well plate, read-out: PbLuc 1uM growth rep1
# [10] = P. berghei liver stage, 1 µM compound treatment (10 mM stocks), replicate 2, normalized, average of 2 wells on a 1536 well plate, read-out: PbLuc 1uM growth rep2
# [11] = P. berghei liver stage, 3 µM compound treatment (10 mM stocks), replicate 1, normalized, average of 2 wells on a 1536 well plate, read-out: PbLuc 3uM growth rep1
# [12] = P. berghei liver stage, 3 µM compound treatment (10 mM stocks), replicate 2, normalized, average of 2 wells on a 1536 well plate, read-out: PbLuc 3uM growth rep2
SMILES,"activity at 1 µM [1, 3] [%]","activity at 1 µM [1, 4] [%]","activity at 1 µM [1, 5] [%]","activity at 3 µM [1, 6] [%]","activity at 3 µM [1, 7] [%]","activity at 3 µM [1, 8] [%]","viability at 48 h, 1 µM (in vitro) [%]","viability at 48 h, 3 µM (in vitro) [%]","HepG2 viability signal, 1 uM, repeat 2 (HepG2-A16-CD81EGFP cells) [%]","HepG2 viability signal, 3 uM, repeat 2 (HepG2-A16-CD81EGFP cells) [%]","activity at 1 µM [1, 9] [%]","activity at 1 µM [1, 10] [%]","activity at 3 µM [1, 11] [%]","activity at 3 µM [1, 12] [%]",AC50 [2] [µM],HepG2 1uM growth rep1 (HepG2-A16-CD81EGFP cells) [%],HepG2 1uM growth rep2 (HepG2-A16-CD81EGFP cells) [%],HepG2 3uM growth rep1 (HepG2-A16-CD81EGFP cells) [%],HepG2 3uM growth rep2 (HepG2-A16-CD81EGFP cells) [%],further results
COc1ccccc1NC(=O)Cn1cccc1-c1nc(-c2ccc(F)cc2)no1 [NCGC00445349-01],128,112,138,108,129,93.3,107,107,104.40,104.77,–,–,–,–,–,–,–,–,–,–
CCOC(=O)C1(Cc2ccccc2C(F)(F)F)CCNCC1 [NCGC00433719-01],99.2,89.8,165,76.2,96.6,91.6,108,105,106.17,103.00,–,–,–,–,–,–,–,–,–,–
COc1ccc(-c2noc(-c3cccn3CC(=O)Nc3ccc(C)cc3Cl)n2)cc1F [NCGC00445494-01],118,111,98.1,77.8,91.7,106,99.5,104,100.81,103.68,–,–,–,–,–,–,–,–,–,–
O=C1NCc2ccccc2CC12CCCN(Cc1ccccc1)C2 (stereo not drawn) [NCGC00377595-01],90.7,117,140,93.9,108,117,104,104,103.34,104.13,–,–,–,–,–,–,–,–,–,–
Cc1ccccc1CC(=O)NCc1nnc2cc(-c3nc(C4CC4)no3)ccn12 [NCGC00457761-01],130,129,103,86.9,122,133,109,107,102.90,101.49,–,–,–,–,–,–,–,–,–,–
CCN(c1ccccc1)[S+](=O)([O-])c1ccc(NC(=O)c2cc(=O)c3cc(C)ccc3o2)cc1 [NCGC00115963-01],–,–,–,–,–,–,–,–,–,–,–,–,–,–,–,–,–,–,–,"viability at 48 h (in vitro): 97.5%; HepG2 viability, fourth HepG2 column (HepG2-A16-CD81EGFP cells): 95.01%; HepG2 viability, second HepG2 column (HepG2-A16-CD81EGFP cells): 97.84%; HepG2 viability, third HepG2 column (HepG2-A16-CD81EGFP cells): 94.20%"
Cc1cc(C)c(C)c(S(=O)(=O)NCc2ccc(C(=O)N3CCCCC3)cc2)c1C [MLS000547926-01],–,–,–,–,–,–,–,–,–,–,124,129,104,108,3.76,93,95,87,94,–
Cc1ccc(-c2nn(-c3ccccc3)c3[nH]c(=O)c(CNCc4ccccc4)cc23)cc1 [MLS000067457-01],–,–,–,–,–,–,–,–,–,–,76,56,38,42,0.422,95,94,91,100,–
CCCCN(C(=O)c1cccc(S(=O)(=O)N(C)c2ccc(C)cc2)c1)c1c(N)n(CCCC)c(=O)[nH]c1=O [MLS001128188-01],–,–,–,–,–,–,–,–,–,–,100,88,85,111,5.31,96,92,90,93,–
Cc1ccc(Sc2ccc(NC(=O)CCl)cc2)cc1C [MLS000334846-01],–,–,–,–,–,–,–,–,–,–,124,83,88,81,9.44,92,91,92,96,–
CCN(CC)CCN1C(=O)c2ccccc2NC1c1ccc(Br)cc1 (stereo not drawn) [MLS000723891-01],–,–,–,–,–,–,–,–,–,–,82,70,13,21,1.5,103,94,84,91,–
CCC(=O)N1CCc2cc(Br)cc(S(=O)(=O)N3CCCCC3CC)c21 (stereo not drawn) [MLS000936752-01],–,–,–,–,–,–,–,–,–,–,89,100,89,116,1.06,106,96,87,93,–
Cc1ccccc1C1C(C#N)=C2N=C(N)c3c(sc4c3CCCCC4)N2C2=C1C(=O)CCC2 (stereo not drawn) [MLS000543544-01],–,–,–,–,–,–,–,–,–,–,129,99,79,94,2.66,94,95,90,96,–
Cc1cc(N2CCN(C3CCCC3)CC2)n2c(nc3ccccc32)c1C#N [MLS000039270-01],–,–,–,–,–,–,–,–,–,–,103,109,75,112,1.06,91,87,89,90,–
O=C(Nc1ccc(Nc2ccncc2)cc1)c1ccc(Nc2ccnc3ccc([N+](=O)[O-])cc23)cc1 [MLS000766132-01],–,–,–,–,–,–,–,–,–,–,125,103,94,98,0.75,92,91,89,92,–
